Source: patent publication US11096942B2, “Heterocyclic compounds and uses thereof” (Celgene CAR LLC, priority 2010, dated 2021)
Like-named read-outs stand apart in the source and are kept apart here.

Columns and labels:
[1] = molecular target: EGFR delE746-A750 (HCC827 cells) (Homo sapiens (Human), UniProt P00533, DEL746-750); assay: Phospho-EGFR signaling immunoblot (1 hr), HCC827 cells; format: cell-based; details: WT EGFR (A431) vs HCC827
Description: (§1) A431 human epidermoid carcinoma, H1975 human NSCLC and HCC827 human NSCLC adenocarcinoma cells were obtained from the American Type Culture Center (Manassas, Va.). A431 cells were grown in DMEM (Invitrogen, Carlsbad, Calif.) supplemented with 10% FBS (HyClone, South Logan, Utah) and 1% Penicillin-Streptomycin (P/S, Lonza, Walkersville, Md.).
(§2) All primary antibodies were obtained from Cell Signaling (Danvers, Mass.) and used at 1:1000. Secondary antibodies were used at 1:10,000. Goat anti-mouse IgG IRDye 800CW antibody was obtained from LiCor Biosciences (Lincoln, Nebr.) and goat anti-rabbit IgG Alexa Fluor 680 was obtained from Invitrogen.
(§3) Cells were grown in 12-well plates (Corning, Coring, N.Y.) to 90% confluence and then incubated in low-serum (0.1% FBS) media for 16-18 hr. […] A431 cells were then stimulated with 50 ng/ml EGF (Peprotech, Rocky Hill, N.J.) for 15 min. After treatment, cell monolayers were washed with cold PBS (Invitrogen) and immediately lysed by scrapping into 60 uL cold Cell Extraction Buffer (Invitrogen) supplemented with Complete Protease inhibitors (Roche, Indianapolis, Ind.) and PhosphoSTOP (Roche) phosphatase inhibitors.
(§4) Phospho-protein signals were quantitated using Odyssey Infrared Imaging (Li-Cor Biosciences).
(§5) To assess phosphor-EGFR signaling, blots were probed with rabbit anti-Phospho-EGFR (Y1068) and mouse total anti-EGFR antibodies. Phospho-EGFR signal was normalized to total EGFR expression for each sample. […] Normalized data was fitted using a sigmoidal curve analysis program (Graph Pad Prism version 5) with variable Hill slope to determine the EC50 values.

[2] = molecular target: EGFR L858R/T790M (H1975 cells) (Homo sapiens (Human), UniProt P00533, L858R/T790M); assay: Phospho-EGFR signaling immunoblot (1 hr), H1975 cells; format: cell-based; details: WT EGFR (A431) vs H1975
Description: as §1, §2, §3, §4, §5

[3] = tested on: HCC827 cells (EGFR delE746-A750); assay: Cell proliferation (CellTiter Glo, 72 hr), HCC827 cells; format: cell-based, human
Description: as §1
(§6) Cells were plated in Growth Media supplemented with 5% FBS and 1% P/S at a density of 3,000 cells per well in 96 well tissue culture plates (Corning). […] Growth inhibition (GI50) values were determined by Graph Pad Prism.

[4] = tested on: H1975 cells (EGFR L858R/T790M); assay: Cell proliferation (CellTiter Glo, 72 hr), H1975 cells; format: cell-based, human
Description: as §1, §6

[5] = molecular target: pEGFR in H1975 cells (Homo sapiens (Human), UniProt P00533, L858R/T790M); assay: Washout experiment in H1975 cells; format: cell-based; details: 500 nM for 1 hr, then washout
Description: Washout Experiment in H1975 Cells Containing EGFR Deletion/T790M Mutation
Cells were plated in Growth Media supplemented with 10% FBS and 1% P/S at a density of 2.0×10^5 cells per well in 12 well tissue culture plates. Cells were allowed to settle down for 4 hrs and then maintained in low-serum (0.1% FBS) media overnight.
The following morning the media was removed and the cells were treated with 500 nM test compound in low-serum media for 1 hr. The cells were washed free of compound 2× with PBS (Invitrogen). One set of cells were immediately lysed as indicated above as the 0 hr time point. The remaining cells were incubated with complete RPMI-1640 growth media (10% FBS) for 1, 3, 6 and 24 hr. For the first 1 hr, cells were washed 2× with PBS every 30 min. DMSO (0.5%) controls were collected at the 0, 3, 6 and 24 hr time points.

[6] = proliferation, WT EGFR (A431) vs HCC827
[7] = proliferation, WT EGFR (A431) vs H1975

SMILES | Ratio WT/mutant [1] | Ratio WT/mutant [2] | Ratio WT/mutant [3, 6] | Ratio WT/mutant [4, 7] | duration of action after compound removal [5] | Ratio WT/mutant [3] | Ratio WT/mutant [4]
C=CC(=O)Nc1cccc(Nc2nc(Nc3ccc(N4CCN(S(C)(=O)=O)CC4)cc3OC)ncc2C(F)(F)F)c1 [Compound I-17, N-(3-(2-(2-methoxy-4-(4-(methylsulfonyl)piperazin-1-yl)phenylamino)-5-(trifluoromethyl)pyrimidin-4-ylamino)phenyl)acrylamide] | >5 | >30 | >15 | >10 | – | – | –
C=CC(=O)Nc1cccc(Nc2nc(Nc3ccc(N4CCN(C(C)=O)CC4)cc3OC)ncc2C(F)(F)F)c1 [Compound I-4, N-(3-(2-(4-(4-acetylpiperazin-1-yl)-2-methoxyphenylamino)-5-(trifluoromethyl)pyrimidin-4-ylamino)phenyl)acrylamide] | – | – | – | – | prolonged duration of action after compound removal | – | –
C=CC(=O)Nc1cccc(Oc2nc(Nc3ccc(N4CCN(C(=O)OC(C)(C)C)CC4)cc3OC)ncc2Cl)c1 [Compound I-46, tert-butyl 4-(4-(4-(3-acrylamidophenoxy)-5-chloropyrimidin-2-ylamino)-3-methoxyphenyl)piperazine-1-carboxylate] | >50 | >10 | – | – | – | >10 | >1
C=CC(=O)Nc1cccc(Nc2nc(Nc3ccc(N4CCOCC4)cc3OC)ncc2C(F)(F)F)c1 [Compound I-2, N-(3-(2-(2-methoxy-4-morpholinophenylamino)-5-(trifluoromethyl)pyrimidin-4-ylamino)phenyl)acrylamide] | – | >50 | >40 | >20 | prolonged duration of action after compound removal | – | –
C=CC(=O)Nc1cccc(Nc2nc(Nc3ccc(N4CCOCC4)cc3OC(F)F)ncc2C(F)(F)F)c1 [Compound I-14, N-(3-(2-(2-(difluoromethoxy)-4-morpholinophenylamino)-5-(trifluoromethyl)pyrimidin-4-ylamino)phenyl)acrlamide] | >15 | >15 | >10 | >5 | – | – | –
C=CC(=O)Nc1cccc(Oc2nc(Nc3ccc(N4CCOCC4)cc3OC)ncc2C(F)(F)F)c1 [Compound I-1, N-(3-(2-(2-methoxy-4-morpholinophenylamino)-5-(trifluoromethyl)pyrimidin-4-yloxy)phenyl)acrylamide] | – | >50 | >15 | >15 | – | – | –
C=CC(=O)Nc1cccc(Oc2nc(Nc3ccc(N4CCN(S(C)(=O)=O)CC4)cc3OC)ncc2Cl)c1 [Compound I-26, N-(3-(5-chloro-2-(2-methoxy-4-(4-(methylsulfonyl)piperazin-1-yl)phenylamino)pyrimidin-4-yloxy)phenyl)acrylamide] | – | >40 | >35 | >1 | – | – | –
